Reference: PubChem BioAssay (NCI)
Where “and” joins values, the source holds several entries; their conditions need not be identical. Identical values can stand only once.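 Five compound concentrations were applied to cells in 96-well plates for 48 hours; endpoints were derived by simple linear interpolation of the resulting dose-response curve. At the GI50, growth is halved. TGI: concentration producing complete growth inhibition.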

Tests used:
Assay in all cases: NCI-60 cell line screen, 48 h
HCT-116 colon = tested on: HCT-116 colon
HCT-15 colon = tested on: HCT-15 colon
HL-60(TB) leukemia = tested on: HL-60(TB) leukemia
HOP-62 NSCLC = tested on: HOP-62 NSCLC
HOP-92 NSCLC = tested on: HOP-92 NSCLC
K-562 leukemia = tested on: K-562 leukemia
KM12 colon = tested on: KM12 colon
NCI/ADR-RES ovarian = tested on: NCI/ADR-RES ovarian
OVCAR-3 ovarian = tested on: OVCAR-3 ovarian
SF-539 CNS = tested on: SF-539 CNS

Structure (SMILES) | GI50 (HCT-116 colon) | TGI (HCT-116 colon) | GI50 (HCT-15 colon) | TGI (HCT-15 colon) | GI50 (HL-60(TB) leukemia) | TGI (HL-60(TB) leukemia) | GI50 (HOP-62 NSCLC) | TGI (HOP-62 NSCLC) | GI50 (HOP-92 NSCLC) | TGI (HOP-92 NSCLC) | GI50 (K-562 leukemia) | TGI (K-562 leukemia) | GI50 (KM12 colon) | TGI (KM12 colon) | GI50 (NCI/ADR-RES ovarian) | TGI (NCI/ADR-RES ovarian) | GI50 (OVCAR-3 ovarian) | TGI (OVCAR-3 ovarian) | GI50 (SF-539 CNS) | TGI (SF-539 CNS)
Cc1ccc(C(=O)Nc2cccc(C(F)(F)F)c2)cc1Nc1nc(-c2cccnc2)nc2c1cnn2C | 0.917 µM and 0.377 µM | 2.87 µM and 3.67 µM | 2.65 µM and 1.63 µM | 4.94 µM | 0.423 µM and 0.273 µM | 3.59 µM and 3.57 µM | 2.62 µM and 1.04 µM | 15.2 µM and > 10 µM | 1.31 µM and 0.534 µM | 5.13 µM and 5.01 µM | 0.0359 µM and 0.0309 µM | > 100 µM | 2.62 µM and 0.686 µM | 17.2 µM and 8.28 µM | 2.19 µM and 1.54 µM | 6.96 µM and 5.68 µM | 3.86 µM and 2.53 µM | 17.4 µM and 7.27 µM | 2.59 µM and 1.22 µM | 13.3 µM and 3.28 µM
COc1cc2c(cc1OCCCCOc1cc3c(cc1OC)C(=O)N1CCC[C@H]1CN3)N=C[C@@H]1CCCN1C2=O | 2.37 µM | > 100 µM | 25.2 µM | > 93.3 µM | – | – | 3.36 µM | > 100 µM | 0.366 µM | 3.3 µM | 0.174 µM | > 37.9 µM | 1.97 µM | 86.2 µM | 45 µM | > 100 µM | 2.05 µM | 6.38 µM | 0.419 µM | 2.89 µM
O=S(=O)(NCCNC/C=C/c1ccc(Br)cc1)c1cccc2cnccc12 | 7.6 µM and 11.2 µM | 22 µM and 24 µM | 11.2 µM and 11.4 µM | 27.3 µM and 25.5 µM | > 24.6 µM and 9.48 µM | > 49.4 µM and 28.1 µM | 7.49 µM and 8.6 µM | 21.7 µM and 22.2 µM | 1.59 µM and 2.8 µM | 9.81 µM and 11.8 µM | 6.63 µM | > 36.7 µM and 27.3 µM | 9.78 µM and 13.7 µM | 23.3 µM and 28.8 µM | 12.3 µM and 14.3 µM | 28.8 µM and 32.3 µM | 12 µM and 14.2 µM | 24.6 µM and 28.3 µM | 7.74 µM and 9.35 µM | 21.9 µM and 22.6 µM
C[C@]12CC[C@H]3[C@@H](CCC4=CC(=O)CC[C@@H]43)[C@@H]1CC[C@@H]2OC(=O)CCc1ccccc1 | 19.3 µM | 43.9 µM | 24.6 µM | > 89.7 µM | 2.41 µM | 35.5 µM | 20.5 µM | 39.6 µM | 20.1 µM | 64.4 µM | 18.8 µM | > 69 µM | 19.8 µM | 43 µM | 19.1 µM | 40.9 µM | 15.8 µM | 30 µM | 16.3 µM | 30.5 µM
COc1ccc(-c2n[nH]nc2-c2cc(OC)c3c(c2OC)OCO3)cc1 | 0.424 µM | 19.2 µM | 0.546 µM | > 100 µM | 0.293 µM | 0.975 µM | 1.45 µM | > 66.1 µM | 0.685 µM | 22.6 µM | 0.277 µM | > 82.4 µM | 0.426 µM | 44.7 µM | 0.368 µM | – | 0.378 µM | 2.71 µM | 1.32 µM | 5.4 µM
Clc1cc(Cl)c(OCC#CI)cc1Cl | 1.75 µM | 3.47 µM | 5.02 µM | 23.5 µM | 2 µM | 5.22 µM | 4.08 µM | 14.2 µM | 15.1 µM | 37.1 µM | 3.49 µM | 18.9 µM | 13.9 µM | 27.5 µM | 2.79 µM | 9.66 µM | 1.85 µM | 3.91 µM | 2.94 µM | 12.8 µM
